Measurements published in the NIST ThermoML archive (doi:10.1016/j.fluid.2014.09.014).
Numbers after ± are expanded uncertainties.

Test: refractive index (other wavelength) (dimensionless); xn = mol fraction of the nth substance listed
Settings: 298.15 K, 101 kPa, Liquid, Standard Abbe refractometry

CC(C)OC(C)C [diisopropyl ether] + CO
refractive index
Settings	Wavelength=435.8 nm	Wavelength=486.1 nm	Wavelength=546.1 nm	Wavelength=587.6 nm
x2 = 0	–	1.36965 ± 0.00043	1.36683 ± 0.00043	1.36535 ± 0.00043
x2 = 0.0423	–	1.36963 ± 0.00042	1.36681 ± 0.00042	1.36534 ± 0.00042
x2 = 0.0424	1.37303 ± 0.00043	1.36961 ± 0.00043	1.36679 ± 0.00043	1.36531 ± 0.00043
x2 = 0.082	1.373 ± 0.00042	1.36958 ± 0.00042	1.36677 ± 0.00042	1.36528 ± 0.00042
x2 = 0.0822	1.373 ± 0.00042	1.36957 ± 0.00042	1.36678 ± 0.00042	1.3653 ± 0.00042
x2 = 0.1171	1.37283 ± 0.00041	1.36942 ± 0.00041	1.36661 ± 0.00041	1.36514 ± 0.00041
x2 = 0.1271	1.37286 ± 0.00041	1.36944 ± 0.00041	1.36664 ± 0.00041	1.36515 ± 0.00041
x2 = 0.1827	1.37246 ± 0.0004	1.36905 ± 0.0004	1.36626 ± 0.0004	1.36478 ± 0.0004
x2 = 0.2162	1.37305 ± 0.0004	1.36963 ± 0.0004	1.36681 ± 0.0004	1.36534 ± 0.0004
x2 = 0.251	1.37234 ± 0.00039	1.36895 ± 0.00039	1.36616 ± 0.00039	1.3647 ± 0.00039
x2 = 0.3298	1.37153 ± 0.00038	1.36815 ± 0.00038	1.36537 ± 0.00038	1.36391 ± 0.00038
x2 = 0.3577	1.37006 ± 0.00037	1.36672 ± 0.00037	1.36396 ± 0.00037	1.36251 ± 0.00037
x2 = 0.4497	1.36914 ± 0.00037	1.36584 ± 0.00037	1.36306 ± 0.00037	1.36163 ± 0.00037
x2 = 0.4525	1.36969 ± 0.00037	1.36637 ± 0.00037	1.3636 ± 0.00037	–
x2 = 0.522	1.36737 ± 0.00035	1.36409 ± 0.00035	1.36134 ± 0.00035	–
x2 = 0.5543	1.36692 ± 0.00035	1.36368 ± 0.00035	1.36093 ± 0.00035	–
x2 = 0.609	1.36396 ± 0.00034	–	1.35803 ± 0.00035	–
x2 = 0.6529	1.36244 ± 0.00034	1.35923 ± 0.00034	1.35655 ± 0.00034	–
x2 = 0.7504	1.35846 ± 0.00033	1.35533 ± 0.00033	1.3527 ± 0.00033	–
x2 = 0.804	1.35412 ± 0.00033	1.35108 ± 0.00033	1.34846 ± 0.00033	–
x2 = 0.807	1.35401 ± 0.00033	1.35096 ± 0.00033	1.34834 ± 0.00033	–
x2 = 0.8727	1.34872 ± 0.00032	1.34572 ± 0.00032	1.34316 ± 0.00032	–
x2 = 0.9233	1.34165 ± 0.00033	1.33873 ± 0.00033	1.33624 ± 0.00033	–
x2 = 0.9253	1.34355 ± 0.00033	1.3406 ± 0.00033	1.33811 ± 0.00033	–
x2 = 0.9527	1.34033 ± 0.00032	1.3374 ± 0.00032	1.33494 ± 0.00032	–
x2 = 0.9773	1.3368 ± 0.00032	1.3339 ± 0.00032	1.33146 ± 0.00032	–
x2 = 0.989	1.3356 ± 0.00032	1.3327 ± 0.00032	1.33028 ± 0.00032	–
x2 = 0.9964	1.3342 ± 0.00032	1.33128 ± 0.00032	1.32888 ± 0.00032	–
